Data set [1] has as its target Multidrug resistance-associated protein 1 (MRP1) (Homo sapiens, UniProt P33527). Kind of data set: TP_TRANSPORTER: inhibition of DNP-SG uptake (DNP-SG: 10 uM, 4-Glutathionyl cyclophosphamide: 1000uM) in membrane vesicles from S1(MRP) cells. The data set is classed as functional, cell membranes, Membrane vesicle. Set-up: scale not given: the % may be the effect or the level left. The following applies: probe DNP-SG, read-out: Activity.

The target of data set [2] is Multidrug resistance-associated protein 1 (Homo sapiens, UniProt P33527). The data set is described as follows: TP_TRANSPORTER: inhibition of DNP-SG uptake (DNP-SG: 10 uM, Glutathione S-conjugate of ethacrynic acid: 10uM) in membrane vesicles from S1(MRP) cells. The data set is classed as functional, cell membranes, Membrane vesicle. Set-up: scale not given: the % may be the effect or the level left.
Multidrug resistance-associated protein 1, sequence (P33527 whole entry): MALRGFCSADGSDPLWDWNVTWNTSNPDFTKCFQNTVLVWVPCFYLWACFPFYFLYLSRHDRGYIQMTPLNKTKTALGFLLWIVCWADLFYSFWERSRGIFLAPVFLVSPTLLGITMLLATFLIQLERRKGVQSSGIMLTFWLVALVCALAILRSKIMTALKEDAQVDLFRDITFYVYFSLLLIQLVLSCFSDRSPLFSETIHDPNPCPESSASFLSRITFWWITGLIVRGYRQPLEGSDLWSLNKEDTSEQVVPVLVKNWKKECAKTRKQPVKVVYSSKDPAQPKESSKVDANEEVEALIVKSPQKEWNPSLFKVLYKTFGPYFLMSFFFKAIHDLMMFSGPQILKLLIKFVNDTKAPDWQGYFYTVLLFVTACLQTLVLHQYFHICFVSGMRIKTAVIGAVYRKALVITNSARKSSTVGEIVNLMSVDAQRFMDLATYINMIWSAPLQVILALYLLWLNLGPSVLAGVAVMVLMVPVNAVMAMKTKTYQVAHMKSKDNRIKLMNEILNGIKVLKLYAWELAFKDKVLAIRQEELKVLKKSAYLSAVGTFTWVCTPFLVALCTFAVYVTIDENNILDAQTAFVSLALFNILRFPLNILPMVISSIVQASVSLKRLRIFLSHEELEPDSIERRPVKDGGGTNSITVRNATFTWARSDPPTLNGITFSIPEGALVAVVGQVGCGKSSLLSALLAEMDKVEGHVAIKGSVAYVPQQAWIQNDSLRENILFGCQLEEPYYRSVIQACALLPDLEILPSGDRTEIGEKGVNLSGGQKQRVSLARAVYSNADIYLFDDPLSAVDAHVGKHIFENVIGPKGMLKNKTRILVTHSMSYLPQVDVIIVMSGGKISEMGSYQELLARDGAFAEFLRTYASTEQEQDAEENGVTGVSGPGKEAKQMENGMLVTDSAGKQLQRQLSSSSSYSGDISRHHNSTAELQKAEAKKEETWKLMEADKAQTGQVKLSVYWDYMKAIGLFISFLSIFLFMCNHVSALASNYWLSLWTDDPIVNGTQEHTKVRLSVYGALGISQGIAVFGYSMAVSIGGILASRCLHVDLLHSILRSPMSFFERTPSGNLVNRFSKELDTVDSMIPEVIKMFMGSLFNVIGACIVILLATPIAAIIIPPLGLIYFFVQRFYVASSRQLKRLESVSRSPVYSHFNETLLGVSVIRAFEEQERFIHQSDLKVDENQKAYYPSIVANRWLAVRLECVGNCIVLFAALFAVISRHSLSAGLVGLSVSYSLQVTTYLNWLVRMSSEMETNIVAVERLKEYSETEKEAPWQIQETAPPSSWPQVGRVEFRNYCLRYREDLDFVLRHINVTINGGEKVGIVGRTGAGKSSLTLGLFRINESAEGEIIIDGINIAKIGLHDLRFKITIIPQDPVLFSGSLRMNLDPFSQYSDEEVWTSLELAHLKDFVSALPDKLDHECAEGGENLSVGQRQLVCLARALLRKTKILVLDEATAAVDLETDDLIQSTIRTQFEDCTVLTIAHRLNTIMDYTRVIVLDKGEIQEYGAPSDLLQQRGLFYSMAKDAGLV

Multidrug resistance-associated protein 1 (MRP1), sequence (P33527 whole entry): as above

`NC(CCC(=O)NC(CSC1CCOP(=O)(N(CCCl)CCCl)N1)C(=O)NCC(=O)O)C(=O)O` (configuration not stated): the activity at 1000 µM in data set [1] came out at 44%. `CCC(CSC[C@@H](NC(=O)CC[C@H](N)C(=O)O)C(=O)NCC(=O)O)C(=O)c1ccc(OCC(=O)O)c(Cl)c1Cl` (some centres not stated) displayed an Activity in data set [2] of 4%.

The record behind these values is ChEMBL document CHEMBL2074303, “Transport of the glutathione conjugate of ethacrynic acid by the human multidrug resistance protein MRP” (FEBS Lett, 1996).
